Measurements from US11685714B2, “Prodrugs of cytotoxic active agents having enzymatically cleavable groups” (BAYER PHARMA AKTIENGESELLSCHAFT, priority 2016, dated 2023).

What was measured:
[1] = Stability in rat liver lysosomes (chapter C1c); type: in vitro ADME
[2] = target: T1, recombinant human legumain (Homo sapiens, UniProt Q99538); assay: Legumain assay (cleavage of legumain-cleavable prodrugs); type: biochemical; conditions: within 24 h; rh legumain, pH 5.0
T1 construct: purchased R&D Systems 2199-CY
T1 sequence (Q99538 26-323 limits assumed): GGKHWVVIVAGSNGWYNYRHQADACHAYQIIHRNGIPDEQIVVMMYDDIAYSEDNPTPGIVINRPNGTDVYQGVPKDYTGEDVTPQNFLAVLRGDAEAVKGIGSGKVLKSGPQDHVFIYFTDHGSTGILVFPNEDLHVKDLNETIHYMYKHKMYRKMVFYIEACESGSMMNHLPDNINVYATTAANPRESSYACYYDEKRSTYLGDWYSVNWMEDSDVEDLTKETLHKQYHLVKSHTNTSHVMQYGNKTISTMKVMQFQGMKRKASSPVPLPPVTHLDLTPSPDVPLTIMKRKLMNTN
Procedure: The legumain assay was conducted with recombinant human enzyme. The rh legumain enzyme solution (catalogue #2199-CY, R&D Systems) was diluted to the desired concentration in 50 mM Na acetate buffer/100 mM NaCl, pH4.0 and preincubated at 37° C. for 2 h. rh legumain was then adjusted to a final concentration of 1 ng/μl in 50 mM MES buffer, 250 mM NaCl, pH 5.0. For every legumain-cleavable prodrug to be examined, a mixture was made up in a micro reaction vessel (0.5 ml, from Eppendorf). For this purpose, the substrate solution was adjusted to the desired concentration (double concentration) with 50 mM MES buffer, 250 mM NaCl, pH 5.0. For the kinetic measurement of the enzymatic reaction, 250 μl of the legumain solution were first initially charged and the enzyme reaction was started by adding 250 μl of the substrate solution (final concentration: single concentration). At different times, 50 μl samples were taken. This sample was admixed immediately with 100 μl of ice-cold methanol in order to stop the enzymatic reaction and then frozen at −20° C. The times selected for sampling were after 0.5 h, 1 h, 3 h and 24 h. The samples were then analysed by means of RP-HPLC analysis and by LC-MS analysis. The determination of the toxophor released enabled the determination of the half-life t½ of the enzymatic reaction (FIG. 1). […]

[3] = target: T2, motor domain of the human kinesin spindle protein KSP/Eg5 (Homo sapiens, UniProt P52732); assay: Inhibition of the kinesin spindle protein KSP/Eg5 (ATPase activity, malachite green); type: biochemical; conditions: 10 nM KSP/Eg5, microtubuli, 500 μM ATP, 2 h at RT
T2 construct: The motor domain of the human kinesin spindle protein KSP/Eg5; purchased tebu-bio/Cytoskeleton Inc 027EG01-XL
T2 sequence (P52732 18-359 limits assumed): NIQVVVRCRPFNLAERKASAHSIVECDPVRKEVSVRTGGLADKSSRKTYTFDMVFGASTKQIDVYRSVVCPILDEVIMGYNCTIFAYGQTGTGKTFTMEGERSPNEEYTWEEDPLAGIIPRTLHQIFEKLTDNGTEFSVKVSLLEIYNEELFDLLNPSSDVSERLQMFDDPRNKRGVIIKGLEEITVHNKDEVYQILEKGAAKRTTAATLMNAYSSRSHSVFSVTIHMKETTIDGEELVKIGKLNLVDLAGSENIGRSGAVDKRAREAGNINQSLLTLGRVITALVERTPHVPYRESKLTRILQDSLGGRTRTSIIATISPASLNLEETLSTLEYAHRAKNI
Procedure: The motor domain of the human kinesin spindle protein KSP/Eg5 (tebu-bio/Cytoskeleton Inc, No. 027EG01-XL) was incubated in a concentration of 10 nM with microtubuli (bovine or porcine, tebu-bio/Cytoskeleton Inc) stabilized with 50 μg/ml taxol (Sigma No. T7191-5MG) for 5 min at RT in 15 mM PIPES, pH 6.8 (5 mM MgCl2 and 10 mM DTT, Sigma). […] Incubation was at RT for 2 h. ATPase activity was detected by detecting the inorganic phosphate formed using malachite green (Biomol). […] The positive controls used were monastrol (Sigma, M8515-1 mg) and ispinesib (AdooQ Bioscience A10486). The individual data of the dose-activity curve are eight-fold determinations. The IC50 values are means of two independent experiments.

[4] = tested on: SK-HEP-1: human liver cell cancer line; assay: MTT assay on SK-HEP-1; type: cell-based; conditions: SK-HEP1, 96 h, growth inhibition, 96 h incubation
Procedure: (§1) The analysis of the cytotoxic effects of the ADCs was carried out with various cell lines:
(§2) The cells were cultivated by the standard method as stated by the American Tissue Culture Collection (ATCC) or the Leibniz-lnstitut DSMZ-Deutsche Sammlung von Mikroorganismen und Zellkulturen GmbH (DSMZ) for the cell lines in question.
(§3) The cells were then incubated in an incubator at 37° C. and 5% carbon dioxide. […] To this end, the MTT reagent was incubated with the cells for 4 h, followed by lysis of the cells overnight by addition of the detergent. […] The measured data were used to calculate the ICo50 of the growth inhibition using the DRC (dose response curve). The proliferation of cells which were not treated with test substance but were otherwise identically treated was defined as the 100% figure.

[5] = Assay for determination of stability in rat plasma; type: in vitro ADME; conditions: 1 μg/ml, 37° C., 24 h
Procedure: To examine the stability of compounds A and B, 1 ml of rat plasma in a 1.5 ml Eppendorf tube in each case was equilibrated to 37° C. on an Eppendorf shaker. A stock solution (9 acetonitrile/1 DMSO) having a concentration of 100 μg/ml for compound A and compound B was prepared. 10 μl in each case of the stock solution were pipetted into 1 ml of equilibrated rat plasma, so as to give a concentration of 1 μg/ml.
The samples were kept at 450 rpm and 37° C. for 24 h. At each of the sampling times of 0, 0.25 h, 0.5 h, 1 h, 2 h, 4 h, 6 h and 24 h, 50 μl were taken and pipetted into 150 μl of methanol. Internal standard was included in the initial charge of methanol at a concentration of 0.05 μg/ml. After brief vortexing, 300 μl of 10 mM ammonium acetate buffer (pH 6.8) were added and centrifuged at 1881 g for 10 min. The samples were then analysed by means of RP-HPLC analysis and by LC-MS analysis.

[6] = tested on: NCI-H292: human mucoepidermoid lung carcinoma cells; assay: MTT assay on NCI-H292; type: cell-based; conditions: NCI-H292, 96 h, growth inhibition, 96 h incubation
Procedure: as §1, §2, §3

CNC(=O)[C@H](CCN(C(=O)CO)[C@@H](c1cc(-c2cc(F)ccc2F)cn1Cc1ccccc1)C(C)(C)C)NC(=O)[C@H](CC(N)=O)NC(=O)[C@@H](C)NC(=O)[C@H](C)NC(=O)Cc1ccncc1 [Example R3r-LDL, N-(Pyridin-4-ylacetyl)-L-alanyl-D-alanyl-N^1-[(2S)-4-[{(1R)-1-[1-benzyl-4-(2,5-difluorophenyl)-1H-pyrrol-2-yl]-2,2-dimethylpropyl}(glycoloyl)amino]-1-(methylamino)-1-oxobutan-2-yl]-L-aspartamide]
stability in rat liver lysosomes (in words) [1]: high stability
extent of cleavage to the target compound by legumain [2]: about 20%
IC50 [3]: 264 nM
IC50 [4]: 283 nM
stability in rat plasma [5]: stable over 24 h
IC50 [6]: 190 nM
